Laboratory results: ChEMBL document CHEMBL4813938, “Astragaloside IV Improves Tibial Defect in Rats and Promotes Proliferation and Osteogenic Differentiation of hBMSCs through MiR-124-3p.1/STAT3 Axis” (J Nat Prod, 2021)
Calls of active or inactive are those of the source. The calls are words filed in the database; no cut-off is given here.

Columns and labels:
Rattus norvegicus [1] = test: Induction of tibial bone defect regeneration in ip dosed Lewis rat assessed as […] in STAT3 mRNA expression level administered for 10 consecutive days by RT-qPCR analysis; type: functional, organism-based; settings: dose 0.16-4 g/Kg, time 10.0 day
HBMSC [2] = test: Induction of cell cycle arrest in human BMSCs overexpressing miR-124-3p.1 assessed as decrease in cells at G0/G1 phase at 160 mg/ml under osteogenic conditions by PI staining based flow cytometric analysis; type: functional
HBMSC [3] = test: Induction of osteogenic differentiation in human BMSCs overexpressing miR-124-3p.1 assessed as increase in osteogenic medium-induced OCN protein expression level at 160 mg/ml by Western blot analysis; type: functional
Rattus norvegicus [4] = test: Induction of tibial bone defect regeneration in ip dosed Lewis rat assessed as increase in Conn.D of tibial bone administered for 10 consecutive days by microcomputed tomography method; type: functional, organism-based; settings: dose 0.16-4 g/Kg, time 10.0 day
HBMSC [5] = test: Induction of cell cycle arrest in human BMSCs overexpressing miR-124-3p.1 assessed as accumulation of cells at G2/M phase at 160 mg/ml under osteogenic conditions by PI staining based flow cytometric analysis; type: functional, tissue-based
HBMSC [6] = test: Induction of osteogenic differentiation in human BMSCs overexpressing miR-124-3p.1 assessed as increase in osteogenic medium-induced OCN mRNA expression level at 160 mg/ml by RT-qPCR analysis; type: functional, tissue-based
HBMSC [7] = test: Induction of osteogenic differentiation in human BMSCs overexpressing miR-124-3p.1 assessed as increase in cell viability at 160 mg/ml incubated for 72 hrs under osteogenic conditions by MTT assay; type: functional, tissue-based
Rattus norvegicus [8] = test: Induction of tibial bone defect regeneration in ip dosed Lewis rat assessed as increase in BMD of tibial bone administered for 10 consecutive days by microcomputed tomography method; type: functional, organism-based; settings: dose 0.16-4 g/Kg, time 10.0 day
HBMSC [9] = test: Induction of osteogenic differentiation in human BMSCs assessed as increase in osteogenic medium-induced Smad4 mRNA expression level by RT-qPCR analysis; type: functional, tissue-based; settings: dose 80-320 mg/ml
HBMSC [10] = test: Induction of osteogenic differentiation in human BMSCs overexpressing miR-124-3p.1 assessed as increase in osteogenic medium-induced matrix mineralization by measuring calcium deposition at 160 mg/ml by Alizarin Red S staining-based microscopic analysis; type: functional, tissue-based
HBMSC [11] = test: Induction of cell cycle arrest in human BMSCs overexpressing miR-124-3p.1 assessed as accumulation of cells at S phase at 160 mg/ml under osteogenic conditions by PI staining based flow cytometric analysis; type: functional, tissue-based
Rattus norvegicus [12] = test: Induction of tibial bone defect regeneration in ip dosed Lewis rat assessed as increase in Tb.N of tibial bone administered for 10 consecutive days by microcomputed tomography method; type: functional, organism-based; settings: dose 0.16-4 g/Kg, time 10.0 day
HBMSC [13] = test: Induction of osteogenic differentiation in human BMSCs overexpressing miR-124-3p.1 assessed as increase in osteogenic medium-induced Smad4 mRNA expression level at 160 mg/ml by RT-qPCR analysis; type: functional, tissue-based
Rattus norvegicus [14] = test: Induction of tibial bone defect regeneration in ip dosed Lewis rat assessed as increase in BV/TV of tibial bone administered for 10 consecutive days by microcomputed tomography method; type: functional, organism-based; settings: dose 0.16-4 g/Kg, time 10.0 day
HBMSC [15] = test: Induction of osteogenic differentiation in human BMSCs overexpressing miR-124-3p.1 assessed as increase in osteogenic medium-induced Smad4 protein expression level at 160 mg/ml by Western blot analysis; type: functional, tissue-based
HBMSC [16] = test: Induction of osteogenic differentiation in human BMSCs assessed as increase in cell viability incubated for 72 hrs under osteogenic conditions by MTT assay; type: functional, tissue-based; settings: dose 80-320 mg/ml
HBMSC [17] = test: Induction of cell cycle arrest in human BMSCs assessed as decrease in cells at G0/G1 phase under osteogenic conditions by PI staining based flow cytometric analysis; type: functional; settings: dose 80-320 mg/ml
Rattus norvegicus [18] = test: Induction of tibial bone defect regeneration in ip dosed Lewis rat assessed as increase in Tb.Th of tibial bone administered for 10 consecutive days by microcomputed tomography method; type: functional, organism-based; settings: dose 0.16-4 g/Kg, time 10.0 day
HBMSC [19] = test: Induction of osteogenic differentiation in human BMSCs assessed as increase in osteogenic medium-induced Smad4 protein expression level by Western blot analysis; type: functional, tissue-based; settings: dose 80-320 mg/ml
Rattus norvegicus [20] = test: Induction of tibial bone defect regeneration in ip dosed Lewis rat assessed as alleviation of bone injury administered for 10 consecutive days by HE staining based assay; type: functional, organism-based; settings: dose 0.16-4 g/Kg, time 10.0 day
HBMSC [21] = test: Induction of osteogenic differentiation in human BMSCs assessed as increase in osteogenic medium-induced RUNX2 protein expression level by Western blot analysis; type: functional, tissue-based; settings: dose 80-320 mg/ml
HBMSC [22] = test: Induction of osteogenic differentiation in human BMSCs assessed as increase in osteogenic medium-induced OCN protein expression level by Western blot analysis; type: functional, tissue-based; settings: dose 80-320 mg/ml
HBMSC [23] = test: Induction of osteogenic differentiation in human BMSCs overexpressing miR-124-3p.1 assessed as increase in alkaline phosphatase activity at 160 mg/ml incubated for 21 days under osteogenic conditions by ELISA; type: functional, tissue-based; settings: time 21.0 day
HBMSC [24] = test: Induction of osteogenic differentiation in human BMSCs assessed as down regulation of miR-124-3p.1 mRNA expression level at 160 mg/ml under osteogenic condition by RT-qPCR analysis; type: functional, tissue-based
HBMSC [25] = test: Induction of osteogenic differentiation in human BMSCs assessed as increase in osteogenic medium-induced matrix mineralization by measuring calcium deposition by Alizarin Red S staining-based microscopic analysis; type: functional, tissue-based; settings: dose 80-320 mg/ml
Rattus norvegicus [26] = test: Induction of tibial bone defect regeneration in ip dosed Lewis rat assessed as decrease in Tb.Sp of tibial bone administered for 10 consecutive days by microcomputed tomography method; type: functional, organism-based; settings: dose 0.16-4 g/Kg, time 10.0 day
Rattus norvegicus [27] = test: Induction of tibial bone defect regeneration in ip dosed Lewis rat assessed as […] in STAT3 protein expression level administered for 10 consecutive days by Western blotting analysis; type: functional, organism-based; settings: dose 0.16-4 g/Kg, time 10.0 day
HBMSC [28] = test: Induction of osteogenic differentiation in human BMSCs overexpressing miR-124-3p.1 assessed as increase in osteogenic medium-induced RUNX2 protein expression level at 160 mg/ml by Western blot analysis; type: functional, tissue-based
HBMSC [29] = test: Induction of cell cycle arrest in human BMSCs assessed as accumulation of cells at S phase under osteogenic conditions by PI staining based flow cytometric analysis; type: functional, tissue-based; settings: dose 80-320 mg/ml
Rattus norvegicus [30] = test: Induction of tibial bone defect regeneration in ip dosed Lewis rat assessed as reduction in […] mRNA expression level administered for 10 consecutive days by RT-qPCR analysis; type: functional, organism-based; settings: dose 0.16-4 g/Kg, time 10.0 day
HBMSC [31] = test: Induction of cell cycle arrest in human BMSCs assessed as accumulation of cells at G2/M phase under osteogenic conditions by PI staining based flow cytometric analysis; type: functional, tissue-based; settings: dose 80-320 mg/ml
HBMSC [32] = test: Induction of osteogenic differentiation in human BMSCs assessed as increase in osteogenic medium-induced RUNX2 mRNA expression level by RT-qPCR analysis; type: functional, tissue-based
HBMSC [33] = test: Induction of osteogenic differentiation in human BMSCs overexpressing miR-124-3p.1 assessed as increase in osteogenic medium-induced RUNX2 mRNA expression level at 160 mg/ml by RT-qPCR analysis; type: functional, tissue-based
HBMSC [34] = test: Induction of osteogenic differentiation in human BMSCs assessed as increase in alkaline phosphatase activity incubated for 21 days under osteogenic conditions by ELISA; type: functional, tissue-based; settings: dose 80-320 mg/ml, time 21.0 day
HBMSC [35] = test: Induction of osteogenic differentiation in human BMSCs assessed as increase in osteogenic medium-induced OCN mRNA expression level by RT-qPCR analysis; type: functional, tissue-based; settings: dose 80-320 mg/ml

CC(C)(O)[C@@H]1CC[C@](C)([C@H]2[C@@H](O)C[C@@]3(C)[C@@H]4C[C@H](O[C@@H]5O[C@H](CO)[C@@H](O)[C@H](O)[C@H]5O)[C@H]5C(C)(C)[C@@H](O[C@@H]6OC[C@@H](O)[C@H](O)[C@H]6O)CC[C@@]56C[C@@]46CC[C@]23C)O1
Activity (Rattus norvegicus [1]): Dose-Dependent Effect | Activity (HBMSC [2]): inactive | Activity (HBMSC [3]): inactive | Activity (Rattus norvegicus [4]): Dose-Dependent Effect | Activity (HBMSC [5]): inactive | Activity (HBMSC [6]): inactive | Activity (HBMSC [7]): inactive | Activity (Rattus norvegicus [8]): Dose-Dependent Effect | Activity (HBMSC [9]): Dose-Dependent Effect | Activity (HBMSC [10]): inactive | Activity (HBMSC [11]): inactive | Activity (Rattus norvegicus [12]): Dose-Dependent Effect | Activity (HBMSC [13]): inactive | Activity (Rattus norvegicus [14]): Dose-Dependent Effect | Activity (HBMSC [15]): inactive | Activity (HBMSC [16]): Dose-Dependent Effect | Activity (HBMSC [17]): Dose-Dependent Effect | Activity (Rattus norvegicus [18]): Dose-Dependent Effect | Activity (HBMSC [19]): Dose-Dependent Effect | Activity (Rattus norvegicus [20]): Dose-Dependent Effect | Activity (HBMSC [21]): Dose-Dependent Effect | Activity (HBMSC [22]): Dose-Dependent Effect | Activity (HBMSC [23]): inactive | Activity (HBMSC [24]): Active | Activity (HBMSC [25]): Dose-Dependent Effect | Activity (Rattus norvegicus [26]): Dose-Dependent Effect | Activity (Rattus norvegicus [27]): Dose-Dependent Effect | Activity (HBMSC [28]): inactive | Activity (HBMSC [29]): Dose-Dependent Effect | Activity (Rattus norvegicus [30]): Dose-Dependent Effect | Activity (HBMSC [31]): Dose-Dependent Effect | Activity (HBMSC [32]): Dose-Dependent Effect | Activity (HBMSC [33]): inactive | Activity (HBMSC [34]): Dose-Dependent Effect | Activity (HBMSC [35]): Dose-Dependent Effect
